Test results reported in patent EP1222921B1, “Pharmaceutical compositions of tizoxanide and/or nitazoxanide” (Romark Laboratories, L.C., priority 1997, dated 1998).
Converted amounts (≈) assume the structure as drawn. Where two headings read alike, the source gives them in different places.

Tests used:
[1] = test system: Cryptosporidium parvum; assay: Preliminary clinical trial in AIDS patients with chronic cryptosporidial diarrhea; assay type: in vivo; conditions: of 16 evaluable by the eighth week, oral 500 to 2000 mg daily
Protocol: In a preliminary clinical trial, 30 AIDS patients with chronic cryptosporidial diarrhea were treated with oral nitazoxanide from 500 to 2000 mg daily. […] Twenty-eight people completed two or more weeks of therapy and 16 of those were evaluable for a therapeutic response by the eighth week of treatment. […] Six patients met both clinical and parasitological response criteria for benefit. Patients who received higher daily doses of drug for longer periods of time were more likely to have a positive response.

[2] = test system: Cryptosporidium parvum; assay type: in vivo
Protocol: An open-label study of nitazoxanide for AIDS-related cryptosporidial diarrhea documented decreased bowel movements among persons taking 500, 1000, 1500, or 2000 mg of the drug daily. […] Almost all participants had failed therapy with azithromycin or paromomycin.
By the end of the study, 8 of 11 had completely eradicated the parasite and the other three had substantial reductions in oocyst levels. There was a trend toward better response with doses of 1000 mg daily or higher and with longer therapy. Two trial participants had urticarial skin rashes; more than 90 percent adhered to the study regimen for more than four weeks.

[3] = test system: C. parvum oocysts; assay: Intact C. parvum oocyst assay (Example II), immunofluorescence; assay type: cell-based, Cryptosporidium parvum
Protocol: Nitazoxanide was dissolved in sterile dimethylsulfoxide (DMSO) and tested against intact C. parvum oocysts infected cell monolayers at concentrations of 100 µg/ml, 10 µg/ml/l µg/ml and 0.1 µg/ml. A second trail was performed which tested nitazoxanide at the additional concentrations of 20, 2, 0.2 and 0.02 µg/ml. These concentrations were achieved by serial dilutions with complete DMEM medium to yield a final DMSO concentration of 0.5%. The medium control also contacted 0.5% DMSO.
The experiment used a cell culture of MDBKF5D2 Cells grown in 7 mm chambers, and as Cryptosporidium parvum: GCH1 oocysts, 5 X 10^4 per well, and was conducted to compare paromomycin (positive control) against nitazoxanide (experimental drug). Materials included Immune Anti-Cryptosporidium parvum Sporozoite Rabbit Serum (0.1%) and Fluorescein-Conjugated Goat Anti-Rabbit Antibody (1%).
5 x 104 C. parvum oocysts per well were incubated in nitazoxanide (100, 20, 10, 2, 1, 0.2, 0.1 and 0.02 µg/ml) at 37°C (8% CO2) on confluent MDBKF5D2 cell monolayers. The level of infection in each well was determined and analyzed by an immunofluorescence assay at 24 to 48 hours. Percent Inhibition was calculated by subtracting the mean parasite count/10 field in the drug test wells from the mean parasite count/10 fields in the medium control (no drug), dividing by the medium control count, and then multiplying by 100. (Medium control count - Drug test count)/(Medium control count)x 100 [formula]

[4] = test system: MDBKF5D2 cell monolayers; assay type: cell-based; conditions: cattle
Protocol: The drug was incubated on the monolayers at 37°C and 8% CO2. At 24 hours (trial 1) and 48 hours (trial 2), MTS (Owen's solution) the PMS were added to each well at concentrations of 333 µg/ml and 25 µM respectively. The plate was returned to the incubator in the dark to develop for two hours. At two hours, 100 µl of each supernatant was transferred to a new microtiter plate and read in the ELISA reader at 490nm. Results were recorded and analyzed. Percent toxicity was calculated by subtracting the mean optical density (OD) of the drug supernatants from the mean optical density (OD) of the medium control supernatants (no drug), dividing by the OD of the medium control and multiplying by 100. (OD medium - OD drug)/(OD medium)x 100 [formula]

[5] = test system: C. parvum oocysts; assay: Intact C. parvum oocyst assay (Example III), immunofluorescence; assay type: cell-based, Cryptosporidium parvum; conditions: for Parasite - Mean parasite count/field (12 fields analyzed) / %Inhib - Percent inhibitation of parasite infection: 48 hr.; for %Inhib - Percent inhibitation of parasite infection: listed as NTZ
Protocol: Each concentration of nitazoxanide and the media controls contained 0.025% DMSO as a constant. The experiment used a cell culture of MDBKF5D2 Cells grown in 7 mm chambers, and as Cryptosporidium parvum: GCH1 oocysts, 5 X 10^4 per well, and was conducted to compare paromomycin (positive control) against nitazoxanide (experimental drug). […] 5 x 104 C. parvum oocysts per well are incubated in the pre-mentioned concentrations of nitazoxanide at 37°C (8% CO2) on confluent MDBKF5D2 cell monolayers. The level of infection in each well was determined and computer analyzed by an immunofluorescence assay at 48 hours. […] (Medium control count - Drug test count)/(Medium control count)x 100 [formula] Conc. - µg/ml; Parasite - Mean parasite count/field (12 fields analyzed); %Inhib - Percent inhibitation of parasite infection; % Tox- Percent toxicity to cells by the drug.

[6] = test system: RH strain of Toxoplasma gondii; assay: Toxoplasma gondii growth in MRC5 fibroblast cultures, ELISA; assay type: cell-based
[7] = test system: M. intracellular ATCC 13950; assay: MIC by standard agar dilution; assay type: cell-based, Mycobacterium intracellular; conditions: Mycobacterium, ATCC13950, 504 h, Middlebrook 7H11 agar, 3 weeks
[8] = test system: S. mansoni; conditions: posttreatment positive egg-counts; report by Abaza et al.; cited from earlier work
[9] = after 23 weeks, 500, 1000, 1500, or 2000 mg daily

Structure (SMILES): CC(=O)Oc1ccccc1C(=O)Nc1ncc([N+](=O)[O-])s1 [Nitazoxanide, 2-(acetolyloxy)-N-(5-nitro 2-thiazoly) benzamide]
- individuals with a marked reduction or eradication of the parasite in the stool [1]: 10
- patients who met both clinical and parasitological response criteria [1]: Six
- people with the organism becoming undetectable [1]: four
- persons with a 50 percent or greater reduction in daily bowel movement frequency [1]: 12
- complete clinical response (one to three predominantly formed bowel movements daily) [2, 9]: 9 of 13
- partial clinical response [2, 9]: 4 of 13
- completely eradicated the parasite ([2]; by the end of the study): 8 of 11
- substantial reductions in oocyst levels ([2]; by the end of the study, remaining of 11): three
- inhibition at 0.1 µg/mL ([3]; Cryptosporidium parvum, Trial 1: 24 hrs, 0.1µg/ml, read-out: Percent Inhibition): 51.8%
- inhibition at 1 µg/mL ([3]; Cryptosporidium parvum, Trial 1: 24 hrs, 1µg/ml, read-out: Percent Inhibition): 77.2%
- inhibition at 10 µg/mL ([3]; Cryptosporidium parvum, Trial 1: 24 hrs, 10µg/ml, read-out: Percent Inhibition): 94.4%
- inhibition at 0.02 µg/mL ([3]; Cryptosporidium parvum, Trial 2: 48 hrs, 0.02µg/ml, read-out: Percent Inhibition): 53.3%
- inhibition at 0.2 µg/mL ([3]; Cryptosporidium parvum, Trial 2: 48 hrs, 0.2µg/ml, read-out: Percent Inhibition): 54.3%
- inhibition at 2 µg/mL ([3]; Cryptosporidium parvum, Trial 2: 48 hrs, 2µg/ml, read-out: Percent Inhibition): 94.9%
- inhibition at 20 µg/mL ([3]; Cryptosporidium parvum, Trial 2: 48 hrs, 20µg/ml, read-out: Percent Inhibition): 96.9%
- Mean (+ SD) Parasite Count/10 Fields ([3]; Trial 1: 24 hrs, 0.1µg/ml): 474.5(±29.5)
- Mean (+ SD) Parasite Count/10 Fields ([3]; Trial 1: 24 hrs, 1µg/ml): 224.5(±28.5)
- Mean (+ SD) Parasite Count/10 Fields ([3]; Trial 1: 24 hrs, 10µg/ml): 55.5(±13.5)
- Mean (+ SD) Parasite Count/10 Fields ([3]; Trial 2: 48 hrs, 0.02µg/ml): 1041(+191.46)
- Mean (+ SD) Parasite Count/10 Fields ([3]; Trial 2: 48 hrs, 0.2µg/ml): 1020(+158.48)
- Mean (+ SD) Parasite Count/10 Fields ([3]; Trial 2: 48 hrs, 2µg/ml): 113.75(+21.36)
- Mean (+ SD) Parasite Count/10 Fields ([3]; Trial 2: 48 hrs, 20µg/ml): 68.75(+13.77)
- Percent Toxicity ([4]; 24 h, 0.1 µg/ml): 19.3%
- Percent Toxicity ([4]; 24 h, 1 µg/ml): 8.3%
- Percent Toxicity ([4]; 24 h, 10 µg/ml): 65.1%
- Percent Toxicity ([4]; 24 h, 100 µg/ml): 88.1%
- Percent Toxicity ([4]; 48 h, 0.02 µg/ml): 21.23%
- Percent Toxicity ([4]; 48 h, 0.2 µg/ml): 16.56%
- Percent Toxicity ([4]; 48 h, 2 µg/ml): 24.93%
- Percent Toxicity ([4]; 48 h, 20 µg/ml): 92.87%
- Parasite - Mean parasite count/field (12 fields analyzed) ([5]; Conc 0.01 µg/ml, 0.025% DMSO): 714.33
- Parasite - Mean parasite count/field (12 fields analyzed) ([5]; Conc 0.1 µg/ml, 0.025% DMSO): 643.42
- Parasite - Mean parasite count/field (12 fields analyzed) ([5]; Conc 1 µg/ml, 0.025% DMSO): 39.67
- %Inhib - Percent inhibitation of parasite infection ([5]; Conc 1 µg/ml, 0.025% DMSO): 93.69%
- Parasite - Mean parasite count/field (12 fields analyzed) ([5]; Conc 10 µg/ml, 0.025% DMSO): 11.75
- %Inhib - Percent inhibitation of parasite infection ([5]; Conc 10 µg/ml, 0.025% DMSO): 98.13%
- inhibition at 0.01 µg/mL ([5]; Cryptosporidium parvum, 48 h, Conc 0.01 µg/ml, 0.025% DMSO, read-out: %Inhib - Percent inhibitation of parasite infection): ≤ 0%
- inhibition at 0.1 µg/mL ([5]; Cryptosporidium parvum, 48 h, Conc 0.1 µg/ml, 0.025% DMSO, read-out: %Inhib - Percent inhibitation of parasite infection): ≤ 0%
- inhibition at 1 µg/mL ([5]; Cryptosporidium parvum, 48 h, Conc 1 µg/ml, 0.025% DMSO, read-out: %Inhib - Percent inhibitation of parasite infection): 94%
- inhibition at 10 µg/mL ([5]; Cryptosporidium parvum, 48 h, Conc 10 µg/ml, 0.025% DMSO, read-out: %Inhib - Percent inhibitation of parasite infection): 98%
- lowest concentration giving more than 90% of inhibition ([5]; in vitro against Cryptosporidium parvum): 1 µg/mL
- concentration with significant effect (inhibition) ([6]; 72 hours): ≥ 0.6 mg/L
- concentrations with complete inhibition of Toxoplasma growth ([6]; 72 hours): ≥ 2.5 mg/L
- IC50 ([6]; Toxoplasma gondii, MRC5, 72 hours, estimated from regression analysis, read-out: 50% inhibitory concentration): 1.2 mg/L (≈ 3.91 µM)
- concentrations at which a marked inhibition of Toxoplasma growth could be observed ([6]; alteration of the parasitophorous vacuole, no marked alteration of the parasite itself): approximately 1.2 mg/L
- microscopic examination of the monolayer ([6]; concentration of 1.25 mg/L): induced cytopathic effect on the parasitized cells, with enlargement of the parasitophorous vacuole and reduction of the number of the intra-celular parasites
- MIC [7]: 2 mg/L (≈ 6.51 µM)
- efficacy in patients [8]: not effective
